Here are results for three molecules from patent US20210401768A1, “FORMULATIONS OF CANNABINOIDS FOR THE TREATMENT OF DERMATITIS AND INFLAMMATORY SKIN DISEASES” (Botanix Pharmaceuticals Ltd., priority 2017, published 2021).

The structures appear in SMILES notation.

Series [1] can be described thus: Discoloration of CBD solutions and formulations on standing. Type of series: physicochemical. The conditions noted are these: end of day. From the text:
The CBD2 material dissolved like the CBD1 therefore the CBD2 is CBD without the discoloration properties of CBD1.

In series [2] the test system is ovalbumin-induced airway obstruction. The conditions noted are these: 1 mg/kg i.v., sensitized guinea-pigs; cited from earlier work.
Series [3] deals with T1, human vanilloid receptor type 1 (VR1) (Homo sapiens, UniProt Q8NER1).
T1 construct: expressed in transfected cells; host or cells: HEK cells transfected with hVR1 (HEK-hVR1)
The conditions noted are these: HEK-hVR1 transfected cells; cited from earlier work.

In a further series the test system is anandamide. The conditions noted are these: rat basophilic leukemia cells; cited from earlier work.
The subject of series [4] is cardiac inflammation produced by doxorubicin. The conditions noted are these: 5 mg/kg i.v. once daily for 4 weeks, rats; cited from earlier work.
The nature of series [5]: Solubility of CBD in solvents (weight to weight). Type of series: physicochemical. The protocol:
First, the solubility of cannabidiol (CBD) was assessed. The powder looked granulated under the microscope. […] The conclusions from the solubility studies were that OA and IPA were very good solvents and it was surprising that IPA was so much better than ethanol.
Solubility studies: CBD dissolved at the 10% level in AE and barely 9.5% in IPM. Further exploration was not conducted due to the small amount of drug API available for non-GMP work. CBD is soluble greater than 10% but probably not in excess of 20%, as the time to dissolve additional CBD was taking considerably longer.

The conditions of series [6]: in ethanol, reported value; cited from earlier work.
Series [7] is described as follows: Solubility of CBD in the Franz cell Receptor Fluid. The series is classed as physicochemical. The conditions noted are these: aqueous with cosolvent or surfactant or cyclodextrin; PBS, 0.01 wt % NaN3, 4 wt % hydroxypropyl-β-cyclodextrin, 1 wt % Brij O20.

T1 sequence (Q8NER1 whole entry): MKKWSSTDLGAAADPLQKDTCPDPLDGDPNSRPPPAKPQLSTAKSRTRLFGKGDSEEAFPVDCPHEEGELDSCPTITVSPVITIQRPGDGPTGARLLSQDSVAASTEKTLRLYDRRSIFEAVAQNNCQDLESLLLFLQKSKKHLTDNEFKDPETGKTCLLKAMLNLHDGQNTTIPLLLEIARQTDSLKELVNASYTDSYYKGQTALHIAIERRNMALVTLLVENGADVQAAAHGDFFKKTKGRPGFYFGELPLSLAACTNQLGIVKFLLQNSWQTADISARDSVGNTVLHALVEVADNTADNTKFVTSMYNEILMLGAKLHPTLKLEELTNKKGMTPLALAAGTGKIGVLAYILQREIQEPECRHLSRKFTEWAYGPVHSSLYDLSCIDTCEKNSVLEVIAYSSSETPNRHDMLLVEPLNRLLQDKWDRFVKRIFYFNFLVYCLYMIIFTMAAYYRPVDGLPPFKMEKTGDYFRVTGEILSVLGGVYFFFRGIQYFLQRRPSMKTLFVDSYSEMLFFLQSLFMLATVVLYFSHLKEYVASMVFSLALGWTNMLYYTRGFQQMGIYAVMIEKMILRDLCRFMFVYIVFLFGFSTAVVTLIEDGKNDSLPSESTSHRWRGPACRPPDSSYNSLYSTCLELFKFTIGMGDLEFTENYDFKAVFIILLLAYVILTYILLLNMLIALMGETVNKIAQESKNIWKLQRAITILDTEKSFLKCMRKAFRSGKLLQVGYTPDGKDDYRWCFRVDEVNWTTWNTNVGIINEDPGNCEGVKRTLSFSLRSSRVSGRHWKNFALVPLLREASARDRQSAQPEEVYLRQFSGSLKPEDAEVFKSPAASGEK

Turning to `C=C(C)[C@@H]1CCC(C)=C[C@H]1c1c(O)cc(CCCCC)cc1O` [CBD1], in series [1], the discoloration of solution result is recorded as “colored by the end of the day”.
Same read-out and setting: the same measure for `C=C(C)[C@@H]1CCC(C)=C[C@H]1c1c(O)cc(CCCCC)cc1O` [CBD2]: “None of the CBD2 solutions were colored at the end of day 1”.
`C=C(C)C1CCC(C)=CC1c1c(O)cc(CCCCC)cc1O` (stereo not drawn) [CBD, 2-[3-methyl-6-(1-methylethenyl)-2-cyclohexen-1-yl]-5-pentyl-1,3-benzenediol]: the “effect on ovalbumin-induced airway obstruction” value in series [2] was “attenuated ovalbumin-induced airway obstruction”. The “stimulation of VR1” value in series [3] is given as “maximum effect similar in efficacy to that of capsaicin”. The inhibition of anandamide result in the series on anandamide is “inhibit anandamide”. In addition, the “effect on cardiac inflammation produced by doxorubicin” value in series [4] is “attenuated cardiac inflammation”. Besides, the “solubility (weight to weight) of CBD” value in series [5] (in ethanol) is on record as 6-7%; in series [5] (in hexamethyldisiloxane (HDS)), 3-4%; in series [5] (in isopropyl alcohol (IPA)) it was “greater than 14%”; in series [5] (in mineral oil) it was 3-4%; in series [5] (in oleyl alcohol (OA), did not go higher in studies), “greater than 8%”; in series [5] (in propylene glycol (PG)) it was 6-7%. Moreover, in series [5] (in isopropyl myristate (IPM)), the “solubility of CBD” value was approximately 9.5%. The “reported solubility of CBD” value in series [6] is recorded as 3.5%. The solubility in series [7] is more than 50 µg/mL.
